Test results reported in US20230247987A1, “THE USE OF SAFENERS TO IMPROVE TOLERANCE OF ACCASE TOLERANT SORGHUM CROP TO HERBICIDES” (Adama Agan Ltd., priority 2020, published 2023).

Tests used:
Format in all cases: in vivo
[1] = system: shattercane (Sorghum bicolor); experiment: Field trial: control of shattercane; details: after 7 days
Panicum miliace = experiment: Field trials: control of Panicum miliace
Setaria viridis = experiment: Field trials: control of Setaria viridis
[2] = system: ACCase tolerant sorghum variety BTX430-CHR-ACC1; experiment: Greenhouse crop response of ACCase tolerant sorghum to quizalofop with and without isoxadifen; details: FIG. 1, X-rates 0.5-8 (Quizalofop 39-616 g/ha, Isoxadifen 27-431 g/ha), rated approximately 14 days after application, versus quizalofop without isoxadifen
Source text: Seeds of the proprietary ACCase tolerant sorghum variety BTX430-CHR-ACC1 (ATCC deposit PTA-125106, mutation W1999C) were supplied by S&W. BTX430-CHR-ACC1 sorghum cultivar contains a single mutation in the ACCase gene that confers ACCase tolerance: Tryptophan to Cysteine amino acid substitution at an amino acid position 1999 (W1999C; SEQ ID NO: 7 as disclosed in WO 2018/222715, namely the sequence denoted herein by SEQ ID NO: 6) aligning with the amino acid sequence of SEQ ID NO: 6 (as disclosed in WO 2018/222715, namely the sequence denoted herein by SEQ ID NO: 5). The mutation provides tolerance to quizalofop.
ACCase tolerant Sorghum seeds (S & W Line ID: T19-90001) were planted in commercial greenhouse soil mix in ˜8-cm square pots.
Plants were started in a greenhouse and placed outdoors at ambient air temperatures when temperatures were conducive to sorghum growth.
Soil fertility and moisture were provided on an as needed basis.
Plants were grown to heights of 10 to 13, 15-18, 20 to 25 and 30 to 35 cm for treatment.
Safener was premixed in the ADM.7000.H.2.A formulation.
Sorghum plants were subjected to “Standard Weed Science Percentage Rankings” where 0=no effect of the herbicide and 100%=complete plant death. Injury represents discoloration, stunting and malformation. Ratings were taken approximately 14 days after herbicide application. […]

[3] = Table 4 trial, after 33 days, X-rate 0.5: Quizalofop 5 oz/a, Isoxadifen 5 oz/a or none
[4] = Table 4 trial, after 33 days, X-rate 1: Quizalofop 10 oz/a, Isoxadifen 10 oz/a or none
[5] = Table 4 trial, after 33 days, X-rate 2: Quizalofop 20 oz/a, Isoxadifen 20 oz/a or none
[6] = Table 5 second trial, after 27 days, X-rate 0.5: Quizalofop 5 oz/a, Isoxadifen 5 oz/a or none
[7] = Table 5 second trial, after 27 days, X-rate 1: Quizalofop 10 oz/a, Isoxadifen 10 oz/a or none
[8] = Table 5 second trial, after 27 days, X-rate 2: Quizalofop 20 oz/a, Isoxadifen 20 oz/a or none

| SMILES | % control Shattercane ([1]; X-rate 0.5: Quizalofop 5 oz/a, Isoxadifen 5 oz/a or none) [%] | % control Shattercane ([1]; X-rate 1: Quizalofop 10 oz/a, Isoxadifen 10 oz/a or none) [%] | % control Shattercane ([1]; X-rate 2: Quizalofop 20 oz/a, Isoxadifen 20 oz/a or none) [%] | % control Panicum miliace (Panicum miliace; [3]) [%] | % control Panicum miliace (Panicum miliace; [4]) [%] | % control Panicum miliace (Panicum miliace; [5]) [%] | % control Panicum miliace (Panicum miliace; [6]) [%] | % control Panicum miliace (Panicum miliace; [7]) [%] | % control Panicum miliace (Panicum miliace; [8]) [%] | % control Setaria viridis (Setaria viridis; [3]) [%] | % control Setaria viridis (Setaria viridis; [4]) [%] | % control Setaria viridis (Setaria viridis; [5]) [%] | % control Setaria viridis (Setaria viridis; [6]) [%] | % control Setaria viridis (Setaria viridis; [7]) [%] | % control Setaria viridis (Setaria viridis; [8]) [%] | crop response (percentage of sorghum crop displaying phytotoxicity) against the X-Rate [2] |
| --- | --- | --- | --- | --- | --- | --- | --- | --- | --- | --- | --- | --- | --- | --- | --- | --- |
| CCOC(=O)[C@@H](C)Oc1ccc(Oc2cnc3cc(Cl)ccc3n2)cc1 [Quizalofop, quizalofop P-ethyl] | 96.8 | 96.8 | 99 | 100 | 100 | 100 | 100 | 100 | 100 | 100 | 100 | 100 | 100 | 100 | 100 | – |
| O=C(O)C1=NOC(c2ccccc2)(c2ccccc2)C1 [isoxadifen] | – | – | – | – | – | – | – | – | – | – | – | – | – | – | – | significant decrease of crop response |
